In ChEMBL document CHEMBL1201862, “PubChem BioAssay data set” (2004):
Where a name gives a salt, the structure may show the parent alone. Calls of active or inactive are those of the source.

Legend:
[1] = target: T1, Apoptotic protease-activating factor 1 (Homo sapiens, UniProt O14727); format: functional
T1 sequence (O14727 whole entry): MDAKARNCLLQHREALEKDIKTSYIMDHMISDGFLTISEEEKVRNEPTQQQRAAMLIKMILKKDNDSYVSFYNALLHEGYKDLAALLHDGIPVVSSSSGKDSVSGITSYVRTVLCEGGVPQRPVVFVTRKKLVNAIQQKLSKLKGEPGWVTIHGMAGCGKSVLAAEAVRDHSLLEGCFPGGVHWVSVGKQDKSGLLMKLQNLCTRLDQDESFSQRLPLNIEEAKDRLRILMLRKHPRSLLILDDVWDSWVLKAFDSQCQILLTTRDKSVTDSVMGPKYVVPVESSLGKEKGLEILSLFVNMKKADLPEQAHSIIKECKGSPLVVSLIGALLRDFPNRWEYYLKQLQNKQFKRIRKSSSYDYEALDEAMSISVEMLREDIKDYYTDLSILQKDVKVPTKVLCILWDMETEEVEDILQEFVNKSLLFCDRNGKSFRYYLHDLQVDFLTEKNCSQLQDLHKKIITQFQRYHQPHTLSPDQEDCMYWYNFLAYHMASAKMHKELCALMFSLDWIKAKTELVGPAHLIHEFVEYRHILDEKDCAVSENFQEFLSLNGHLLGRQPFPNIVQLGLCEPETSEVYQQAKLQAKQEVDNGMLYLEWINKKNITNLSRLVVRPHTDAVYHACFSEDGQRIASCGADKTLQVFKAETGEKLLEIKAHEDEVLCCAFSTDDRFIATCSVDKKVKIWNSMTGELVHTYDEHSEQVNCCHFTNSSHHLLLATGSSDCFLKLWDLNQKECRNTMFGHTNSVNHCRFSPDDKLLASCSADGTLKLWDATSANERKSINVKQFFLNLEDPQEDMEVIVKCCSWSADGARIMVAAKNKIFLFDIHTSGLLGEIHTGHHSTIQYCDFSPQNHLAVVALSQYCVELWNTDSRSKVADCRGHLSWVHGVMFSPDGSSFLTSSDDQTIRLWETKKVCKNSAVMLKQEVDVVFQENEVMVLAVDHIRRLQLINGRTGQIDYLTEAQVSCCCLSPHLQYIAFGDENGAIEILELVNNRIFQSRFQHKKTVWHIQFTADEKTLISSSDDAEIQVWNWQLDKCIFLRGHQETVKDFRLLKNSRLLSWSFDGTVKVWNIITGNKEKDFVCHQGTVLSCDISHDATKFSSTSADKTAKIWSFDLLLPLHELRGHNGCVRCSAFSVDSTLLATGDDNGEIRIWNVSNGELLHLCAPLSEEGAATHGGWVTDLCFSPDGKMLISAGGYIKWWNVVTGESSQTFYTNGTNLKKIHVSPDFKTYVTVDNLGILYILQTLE

Caspase-6 = target: T2, Caspase-6 (Homo sapiens, UniProt P55212); assay: human caspase-6 inhibitors, dose response, biochemical, VEID-R110 fluorescence, cherry-pick (AID 720632)
T2 sequence (P55212 whole entry): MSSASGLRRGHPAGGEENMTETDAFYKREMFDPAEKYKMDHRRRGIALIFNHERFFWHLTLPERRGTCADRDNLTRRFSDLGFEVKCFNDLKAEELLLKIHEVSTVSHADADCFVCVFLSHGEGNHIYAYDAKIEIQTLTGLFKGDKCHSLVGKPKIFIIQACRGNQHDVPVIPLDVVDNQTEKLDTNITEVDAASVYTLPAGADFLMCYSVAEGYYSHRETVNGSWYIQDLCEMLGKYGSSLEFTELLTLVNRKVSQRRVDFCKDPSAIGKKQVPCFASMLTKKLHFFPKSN

SUMO-activating enzyme [2] = target: T3, SUMO-activating enzyme (Homo sapiens, UniProt Q9UBT2); assay: SUMOylation inhibitor hit validation, confirmation, SUMOylation inhibitor project, biochemical, AlphaScreen (AID 2018); format: functional
T3 sequence (Q9UBE0 whole entry): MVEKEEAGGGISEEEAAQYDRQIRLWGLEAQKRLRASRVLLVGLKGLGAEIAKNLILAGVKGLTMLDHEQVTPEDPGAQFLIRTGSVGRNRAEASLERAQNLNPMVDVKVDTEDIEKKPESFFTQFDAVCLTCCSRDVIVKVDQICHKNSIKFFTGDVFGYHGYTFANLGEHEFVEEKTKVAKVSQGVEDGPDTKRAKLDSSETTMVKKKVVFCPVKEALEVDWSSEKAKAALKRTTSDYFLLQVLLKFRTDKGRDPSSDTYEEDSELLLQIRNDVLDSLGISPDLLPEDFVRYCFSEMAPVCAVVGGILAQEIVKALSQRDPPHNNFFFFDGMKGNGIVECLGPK
T3 sequence (Q9UBT2 whole entry): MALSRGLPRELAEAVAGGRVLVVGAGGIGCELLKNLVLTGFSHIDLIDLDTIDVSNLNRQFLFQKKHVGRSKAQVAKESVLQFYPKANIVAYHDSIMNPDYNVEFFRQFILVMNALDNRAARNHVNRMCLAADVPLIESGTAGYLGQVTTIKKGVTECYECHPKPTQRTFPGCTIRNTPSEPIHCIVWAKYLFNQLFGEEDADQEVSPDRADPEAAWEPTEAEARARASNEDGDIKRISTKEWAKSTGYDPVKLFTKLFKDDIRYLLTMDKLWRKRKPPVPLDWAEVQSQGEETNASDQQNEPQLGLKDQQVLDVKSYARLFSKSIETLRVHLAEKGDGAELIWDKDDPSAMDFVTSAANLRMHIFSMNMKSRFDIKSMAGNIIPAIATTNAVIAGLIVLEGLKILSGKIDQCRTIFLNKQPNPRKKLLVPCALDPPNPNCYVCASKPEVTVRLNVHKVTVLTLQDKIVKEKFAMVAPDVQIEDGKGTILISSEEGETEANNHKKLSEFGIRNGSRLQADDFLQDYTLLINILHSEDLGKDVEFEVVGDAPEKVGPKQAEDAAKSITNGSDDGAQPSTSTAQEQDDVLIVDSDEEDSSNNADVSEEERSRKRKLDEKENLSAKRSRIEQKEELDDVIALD

[3] = target: Glutathione-S-transferase (Schistosoma japonicum, UniProt Q26513); assay: biotin-GST/anti-GST TR-FRET signal inhibitors, dose response, artefact control for Vif-APOBEC3G degradation inhibitor project, biochemical (AID 1117362); format: functional
Sequence of Glutathione-S-transferase (Q26513 whole entry): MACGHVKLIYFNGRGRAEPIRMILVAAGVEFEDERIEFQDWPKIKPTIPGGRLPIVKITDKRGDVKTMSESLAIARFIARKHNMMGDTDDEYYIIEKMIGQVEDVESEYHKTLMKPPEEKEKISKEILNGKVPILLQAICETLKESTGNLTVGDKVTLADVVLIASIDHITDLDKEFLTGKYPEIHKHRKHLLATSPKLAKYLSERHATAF

[4] = target: T4, Sentrin-specific protease 8 (Homo sapiens, UniProt Q96LD8); format: functional
T4 sequence (Q96LD8 whole entry): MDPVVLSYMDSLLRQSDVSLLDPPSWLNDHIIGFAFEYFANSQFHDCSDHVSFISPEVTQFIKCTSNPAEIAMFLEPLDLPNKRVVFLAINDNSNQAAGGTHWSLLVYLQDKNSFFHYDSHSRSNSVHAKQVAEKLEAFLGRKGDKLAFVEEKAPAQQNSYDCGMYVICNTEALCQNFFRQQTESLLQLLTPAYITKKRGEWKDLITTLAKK

[5] = target: T5, Histone-lysine N-methyltransferase NSD2 (Homo sapiens, UniProt O96028); format: biochemical
T5 sequence (O96028 whole entry): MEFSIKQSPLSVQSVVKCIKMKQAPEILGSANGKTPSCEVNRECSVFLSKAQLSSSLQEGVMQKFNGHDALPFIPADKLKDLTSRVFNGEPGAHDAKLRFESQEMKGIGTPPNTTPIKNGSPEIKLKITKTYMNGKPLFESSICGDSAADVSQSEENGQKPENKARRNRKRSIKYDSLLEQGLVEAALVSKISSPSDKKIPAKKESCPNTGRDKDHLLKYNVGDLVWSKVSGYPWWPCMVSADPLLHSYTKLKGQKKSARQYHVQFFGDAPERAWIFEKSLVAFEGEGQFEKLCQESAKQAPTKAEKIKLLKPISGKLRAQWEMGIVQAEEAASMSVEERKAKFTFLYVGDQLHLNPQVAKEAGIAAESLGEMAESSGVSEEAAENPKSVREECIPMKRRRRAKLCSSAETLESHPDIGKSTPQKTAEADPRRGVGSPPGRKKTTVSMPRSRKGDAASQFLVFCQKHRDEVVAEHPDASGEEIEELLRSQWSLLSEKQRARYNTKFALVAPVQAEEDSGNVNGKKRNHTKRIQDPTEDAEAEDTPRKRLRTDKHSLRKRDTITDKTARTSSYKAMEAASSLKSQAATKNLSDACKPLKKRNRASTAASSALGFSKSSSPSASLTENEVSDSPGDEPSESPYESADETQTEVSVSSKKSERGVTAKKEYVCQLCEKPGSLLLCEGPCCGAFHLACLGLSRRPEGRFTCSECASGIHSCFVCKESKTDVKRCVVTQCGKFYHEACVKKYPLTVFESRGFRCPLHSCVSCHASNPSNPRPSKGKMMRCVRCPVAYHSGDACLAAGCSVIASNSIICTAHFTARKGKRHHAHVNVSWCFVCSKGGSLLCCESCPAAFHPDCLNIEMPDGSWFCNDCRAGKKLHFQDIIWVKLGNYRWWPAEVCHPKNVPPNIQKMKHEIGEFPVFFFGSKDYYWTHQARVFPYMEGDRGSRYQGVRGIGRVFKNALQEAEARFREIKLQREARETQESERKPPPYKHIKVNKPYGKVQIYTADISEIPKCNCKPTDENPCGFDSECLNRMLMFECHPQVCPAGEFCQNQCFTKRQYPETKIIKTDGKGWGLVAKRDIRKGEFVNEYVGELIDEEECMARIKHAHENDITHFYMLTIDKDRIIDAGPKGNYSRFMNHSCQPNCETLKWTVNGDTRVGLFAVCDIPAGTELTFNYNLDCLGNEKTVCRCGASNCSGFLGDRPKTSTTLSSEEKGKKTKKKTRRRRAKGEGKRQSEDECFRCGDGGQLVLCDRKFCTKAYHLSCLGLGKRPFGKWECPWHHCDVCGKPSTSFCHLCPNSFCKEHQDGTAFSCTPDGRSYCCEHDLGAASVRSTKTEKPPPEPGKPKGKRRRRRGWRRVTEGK

[6] = target: T4, Sentrin-specific protease 8; format: functional; remark: listed apart in the source
[7] = target: Tyrosyl-DNA phosphodiesterase 2 (Homo sapiens, UniProt O95551); assay: human TDP2 enzyme inhibitors, dose response, biochemical, epi absorbance, IC50 (AID 743297)
Sequence of Tyrosyl-DNA phosphodiesterase 2 (O95551 whole entry): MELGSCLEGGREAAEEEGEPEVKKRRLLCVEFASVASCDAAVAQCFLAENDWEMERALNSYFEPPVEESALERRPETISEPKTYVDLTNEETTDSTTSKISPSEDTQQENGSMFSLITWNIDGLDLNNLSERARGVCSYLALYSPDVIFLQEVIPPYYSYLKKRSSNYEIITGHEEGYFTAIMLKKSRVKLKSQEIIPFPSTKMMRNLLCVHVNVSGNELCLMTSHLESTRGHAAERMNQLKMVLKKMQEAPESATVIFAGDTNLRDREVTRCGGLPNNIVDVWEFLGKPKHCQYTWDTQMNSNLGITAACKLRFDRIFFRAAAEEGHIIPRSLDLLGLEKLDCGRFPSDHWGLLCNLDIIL

SUMO-activating enzyme [8] = target: T3, SUMO-activating enzyme; assay: inhibitors of in vitro SUMOylation cascade, primary screen, biochemical, HTRF, uHTS (AID 2006); format: protein-complex assay
[9] = target: T6, Mannose-6-phosphate isomerase (Homo sapiens, UniProt P34949); assay: inhibitors of human PMI, primary screen, biochemical, fluorescence intensity, coupled assay (AID 1209)
T6 sequence (P34949 whole entry): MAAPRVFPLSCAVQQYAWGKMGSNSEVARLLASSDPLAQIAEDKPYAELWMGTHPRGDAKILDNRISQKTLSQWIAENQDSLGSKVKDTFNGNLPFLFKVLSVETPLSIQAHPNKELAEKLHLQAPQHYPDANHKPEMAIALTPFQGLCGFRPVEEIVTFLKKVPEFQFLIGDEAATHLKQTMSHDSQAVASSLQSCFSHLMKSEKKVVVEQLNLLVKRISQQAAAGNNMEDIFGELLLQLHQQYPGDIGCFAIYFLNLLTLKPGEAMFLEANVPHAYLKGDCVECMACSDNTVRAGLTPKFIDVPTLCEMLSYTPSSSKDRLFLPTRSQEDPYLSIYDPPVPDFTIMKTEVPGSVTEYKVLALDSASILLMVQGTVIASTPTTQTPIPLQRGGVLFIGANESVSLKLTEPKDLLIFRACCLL

Protein Tat = Protein Tat (Human immunodeficiency virus type 1 group M subtype B (isolate HXB2)(HIV-1), UniProt P04608); format: functional;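 also: tat binding to TAR RNA read out by fluorescence polarization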
Sequence of Protein Tat (P04608 whole entry, the tested form may be a part): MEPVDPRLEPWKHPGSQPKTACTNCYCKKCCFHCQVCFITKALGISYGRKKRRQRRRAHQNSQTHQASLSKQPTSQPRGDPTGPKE

[10] = target: T7, RNA-binding protein pos-1 (Caenorhabditis elegans, UniProt G5EF15); assay: inhibitors of POS-1/mex-3 RNA binding, dose response, biochemical, fluorescence polarization (AID 1964);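 also: purified POS-1 fused to maltose binding protein made in E. coli; potency of compounds blocking POS-1 binding to fluorescent RNA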
T7 sequence (G5EF15 whole entry): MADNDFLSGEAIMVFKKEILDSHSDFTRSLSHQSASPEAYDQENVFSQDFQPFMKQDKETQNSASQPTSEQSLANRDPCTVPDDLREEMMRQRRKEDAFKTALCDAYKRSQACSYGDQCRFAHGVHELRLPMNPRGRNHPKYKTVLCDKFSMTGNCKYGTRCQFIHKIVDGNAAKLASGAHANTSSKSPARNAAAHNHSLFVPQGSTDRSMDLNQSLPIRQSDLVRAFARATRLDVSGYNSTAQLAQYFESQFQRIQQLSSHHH

[11] = target: T8, Zinc finger protein mex-5 (Caenorhabditis elegans, UniProt Q9XUB2); assay: MEX-5/TCR-2 RNA interaction inhibitors, dose response, biochemical, C. elegans, fluorescence polarization (AID 1960)
T8 sequence (Q9XUB2 whole entry): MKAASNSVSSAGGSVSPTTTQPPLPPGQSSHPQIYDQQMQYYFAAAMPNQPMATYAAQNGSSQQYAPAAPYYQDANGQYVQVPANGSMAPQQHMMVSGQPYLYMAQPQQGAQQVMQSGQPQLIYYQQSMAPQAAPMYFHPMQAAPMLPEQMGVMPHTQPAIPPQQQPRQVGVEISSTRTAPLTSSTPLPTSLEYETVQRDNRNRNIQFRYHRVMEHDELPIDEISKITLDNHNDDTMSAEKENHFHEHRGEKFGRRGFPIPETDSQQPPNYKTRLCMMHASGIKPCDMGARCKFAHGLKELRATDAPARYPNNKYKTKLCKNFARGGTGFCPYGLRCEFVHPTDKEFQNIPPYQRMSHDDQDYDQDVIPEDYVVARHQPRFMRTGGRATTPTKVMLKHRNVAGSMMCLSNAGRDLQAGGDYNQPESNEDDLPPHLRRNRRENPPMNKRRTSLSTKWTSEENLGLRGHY

[12] = cytotoxicity toward HT-29 cells – cell-based, CellTiter-Glo luminescence, IC50, dose response (AID 1117330); format: functional
[13] = RKO cell viability reduction, dose response, CellTiter-Glo luminescence (AID 1117322); format: functional
[14] = SNU-C1 cell viability reduction, dose response, CellTiter-Glo luminescence (AID 1117323); format: functional, cell-based
[15] = Concentration-dependent survival of SW480 colon cancer line, luminescence detection with CellTiter-Glo, half-maximal inhibitory concentration (AID 1117338); format: functional
[16] = target: Aryl hydrocarbon receptor (Homo sapiens, UniProt P35869); details: Potency;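 also: confirmatory quantitative high-throughput screen measuring activation of the AhR signaling pathway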
Sequence of Aryl hydrocarbon receptor (P35869 whole entry): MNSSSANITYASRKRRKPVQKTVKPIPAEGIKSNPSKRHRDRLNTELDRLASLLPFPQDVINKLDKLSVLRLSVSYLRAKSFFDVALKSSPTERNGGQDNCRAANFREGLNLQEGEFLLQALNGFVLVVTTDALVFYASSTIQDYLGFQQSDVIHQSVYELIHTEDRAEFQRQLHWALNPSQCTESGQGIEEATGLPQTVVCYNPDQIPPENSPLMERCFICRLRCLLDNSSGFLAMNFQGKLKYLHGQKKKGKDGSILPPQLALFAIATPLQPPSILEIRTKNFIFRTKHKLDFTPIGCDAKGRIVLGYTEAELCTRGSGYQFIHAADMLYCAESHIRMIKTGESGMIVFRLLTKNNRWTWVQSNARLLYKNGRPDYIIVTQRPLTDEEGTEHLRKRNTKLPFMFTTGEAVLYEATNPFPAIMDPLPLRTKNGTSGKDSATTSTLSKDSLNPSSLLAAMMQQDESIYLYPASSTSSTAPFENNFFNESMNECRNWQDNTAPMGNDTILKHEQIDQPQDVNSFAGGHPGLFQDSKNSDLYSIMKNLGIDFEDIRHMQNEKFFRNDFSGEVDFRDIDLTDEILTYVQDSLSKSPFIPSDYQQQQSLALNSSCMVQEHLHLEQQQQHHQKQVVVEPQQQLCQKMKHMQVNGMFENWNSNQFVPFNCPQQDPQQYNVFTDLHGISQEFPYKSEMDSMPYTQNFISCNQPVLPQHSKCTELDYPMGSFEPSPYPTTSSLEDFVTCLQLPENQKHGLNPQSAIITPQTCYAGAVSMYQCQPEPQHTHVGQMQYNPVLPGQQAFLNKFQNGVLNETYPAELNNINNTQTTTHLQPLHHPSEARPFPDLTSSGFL

[17] = HCT116 cell viability decrease, GSK3B pretreatment – CellTiter-Glo, IC50, dose response (AID 1117339); format: functional; details: HCT-116
[18] = cytotoxicity toward Colo320 cells – cell-based, CellTiter-Glo luminescence, IC50, dose response (AID 1117334); format: functional; details: COLO 320
[19] = cytotoxicity toward HCT116 cells – cell-based, CellTiter-Glo luminescence, IC50, dose response (AID 1117332); format: functional; details: HCT-116
[20] = CellTiter-Glo luminescent dose response of DLD-1 viability loss (AID 1117352); format: functional
[21] = Dose-response inhibition of insulin secretion in a rat insulinoma line at 5 mM glucose (AID 1117331); format: functional, cell-based; details: INS-1E

Structure (SMILES) | IC50 (Protein Tat) | IC50 [12] | IC50 [13] | IC50 [14] | IC50 [15] | IC50 [17] | IC50 [18] | IC50 [19] | IC50 [20] | further results
CN(C)c1cc(Cl)c2nonc2c1N | – | – | – | – | – | – | – | – | – | IC50 [1]: 16.8 µM (active); AC50 (Caspase-6): 12.6 µM (active); IC50 (SUMO-activating enzyme [2]): 2.7 µM (active); IC50 [3]: > 100 µM (active); IC50 [4]: 6.83 µM (active); AC50 [5]: 4.43 µM (active); IC50 [6]: 8.12 µM (active); IC50 [7]: 9.9 µM (active); IC50 (SUMO-activating enzyme [8]): 16.2 µM (active)
Cc1cc(O)c(Oc2cc(C)cc(O)c2O)c(O)c1 | > 100 µM (active) | – | – | – | – | – | – | – | – | IC50 [9]: 39.5 µM (active); EC50 [10]: 43.9 µM (active); EC50 [11]: 12.9 µM (active)
CN(C)c1ccc(C(=C2C=CC(=[N+](C)C)C=C2)c2ccccc2)cc1 | – | 0.00982 µM (active) | 0.118 µM (active) | 0.0354 µM (active) | 0.00922 µM (active) | 0.00983 µM (active) | 0.161 µM (active) | 0.0179 µM (active) | 0.0218 µM (active) | AC50 [16]: 7.94 µM (inconclusive)
CN1CCN(C(=O)CSc2nc(-c3cccs3)ccc2C#N)CC1 | > 100 µM (active) | – | – | – | – | – | – | – | – | –
CN(C)CCCOc1nn(Cc2ccccc2)c2ccccc12 [BENZYDAMINE HYDROCHLORIDE] | – | – | – | – | – | – | – | – | – | IC50 [21]: 21.4 µM (inactive)
NC1=NCC2c3ccccc3Cc3ccccc3N12 (configuration not stated) [EPINASTINE HYDROCHLORIDE] | – | > 20 µM (inactive) | > 20 µM (inactive) | > 20 µM (inactive) | > 20 µM (inactive) | > 20 µM (inactive) | > 20 µM (inactive) | > 20 µM (inactive) | > 20 µM (inactive) | –
